In patent publication US20120202892A1, “Cannabinoid-Containing Compositions and Methods for Their Use” (University of Kentucky Research Foundation, priority 2008, published 2012):
Values joined by “and” are separate entries in the source; they are usually repeats but may differ in a detail not shown here. Identical values can stand only once. “Also recorded” adds a separate entry of the source. Like-named read-outs stand apart in the source and are kept apart here. Marks after values point to notes of the source that are not given here.

Key:
[1] = Plasma CBD concentration after topical gel application (LC/MS); assay type: in vivo, Sprague-Dawley rats; conditions: rats
Method: (§1) Baseline parameters (body weight, knee joint temperature, and knee joint circumference) were obtained before the knee injection of rats with CFA. PWL test and exploratory activity testing were also conducted prior to CFA injection. Rats were anesthetized with a short term anesthetic and the left knee joint, cavity was injected with CFA for induction of mono-arthritis. On day 3, the back of each animal was shaved. […] Rats received daily treatments for four consecutive days of either vehicle gel, or CBD gel. Gel was applied to the skin in a templated region on the dorsal surface of the rat and rubbed into the skin for 30 sec to ensure complete coverage. The nitrile template was used to ensure specific area reproducibility. The PWL test was conducted 4 h after gel application. Exploratory activity was monitored prior to initial gel application and on the third day post gel application (after 6 h). On the final day of gel application after the body and knee joint parameters were obtained and PWL test was conducted, rats were cuthanized by pentobarbital overdose. Blood samples were obtained for CBD plasma quantification, and tissues (knee joints, dorsal root ganglia, spinal cord, brain) were collected after perfusion.
50 μL aliquot of plasma collected from cannabidiol dosed rats was added to a siliconized microcentrifuge tube containing 500 μL of 1:1 ACN:ethyl acetate. The plasma/ACN:ethyl acetate sample was vortexed for 30 sec and centrifuged at 10,000×g for 20 min. The supernatant was removed and placed into a clean silanized culture tube and evaporated under nitrogen in a 37° C. water bath. The dried sample was reconstituted with 100 μL of ACN and vortexed for 30 sec, then sonicated for 5 min. […] Standards were prepared by spiking blank plasma samples with respective standard concentrations and extracting the standards similarly to the collected plasma samples.
The LC/MS system used to analyze samples was comprised of a Waters Alliance 2695 pump and autosampler, a Micromass™ ZQ detector, and 996 photodiode array detector with MassLynx™ software (Waters Corp., Milford, Mass.). A Symmetry™ C18 column (150×2.1 mm, 5 μm) with a Sentry Symmetry™ guard column (10×2.1 mm, 3.5 μm) was used with the LC/MS system. The ZQ detector was used with an electrospray ionization (ESI) probe set for single ion monitoring (SIM) for cannabidiol quantification. Analysis was performed in negative mode for m/z 313 [CBD-H]^− (dwell time: 30 sec). Capillary and cone voltage were set at […] and 40 V, respectively. Source block and desolvation temperatures were set at 120° C. and 250° C., respectively. Nitrogen produced from the Nitroflow Lab (Parker Hannifin Corp; Cleveland, Ohio) was used as nebulization and drying gas flow rates of 50 and 450 L/h, respectively. […]

[2] = test system: CFA-induced knee joint inflammation; assay: Knee joint temperature in CFA mono-arthritic rats; assay type: in vivo, Sprague-Dawley rats
[3] = test system: CFA intraplantar injection; conditions: rats, 20 mg/kg oral, 7 consecutive days; cited from earlier work
[4] = test system: CFA-induced mono-arthritis, secondary thermal hyperalgesia; assay: Secondary thermal hyperalgesia, paw withdrawal latency (PWL) test; assay type: in vivo, Sprague-Dawley rats; conditions: for Paw withdrawal latency (PWL), own baseline score: baseline before CFA and CBD
Method: Secondary thermal hyperalgesia was assessed with the paw withdrawal latency (PWL) test (Hargreaves et al. (1988) Pain 32: 77-88). PWLs were measured in response to a radiant heat source shone on one hind paw of the animals from beneath a glass top table. A shortened PWL response in animals with knee joint inflammation was indicative of secondary thermal hyperalgesia. Animals were placed in separate plastic cubicles (4×4×10 in) on a glass top table (2 mm thickness of glass) and allowed to adapt to their new environment for 20-30 min before testing. A small movable metal box that focused a high-intensity light beam through an aperture (0.5 cm×0.5 cm) was attached to an on/off switch and a digital timer. The light beam was applied to the plantar surface of the hind paw through the glass until the rat lifted its paw. At that time, the light is switched off and the number of seconds on the digital timer recorded as the PWL (sec). The maximal cut off time for the paw-withdrawal reflex was set to 15 sec (55° C.). […] Both hind paws were tested independently for 5 trials per side with 5-minute intervals between trials. A mean of the 5 trials was calculated for each animal. The PWL tests were performed before knee joint injection as a baseline and 5 times after the CFA injection beginning on day 3 (days 3-7). The examiner was blind from the treatment group of animals.
as §1
Half of the treated rats were injected with the CFA in the knee joint. Within each group of rats, half received vehicle gel without CBD and the other half received the gel CBD. Four different doses were tested in the rats, 0.6 mg/d, 3.1 mg/d, 6.2 mg/d, or 62.3 mg/d. […] A two-fold lower dose and a ten-fold lower/higher dose (3.1 mg/d, 0.6 mg/d, and 62.3 mg/d) were also investigated. Area of application, amount of gel, and/or concentration of gel was adjusted to achieve the desired doses.

[5] = test system: carrageenan-induced paw edema; conditions: cited from earlier work
[6] = test system: CFA-induced knee joint inflammation; assay: Knee joint circumference in CFA mono-arthritic rats; assay type: in vivo, Sprague-Dawley rats
[7] = test system: collagen-induced arthritis; conditions: mice, cited from earlier work
normal (non-CFA) rats = assay: Open field exploratory behavioral activity; assay type: in vivo, Sprague-Dawley rats
Method: Exploratory behavioral activity of the rats was monitored using the Flexfield Animal Activity System (San Diego Instruments; San Diego, Calif.) with a Photobeam Activity System software coupled to a computer according to previously published methods by Zhang et al., (2004) Pharmacol Biochem Behav 77: 145-153. Briefly, six main parameters were recorded: rearing events and rearing time, active time, and resting time, total activity (i.e. number of photobeams disturbed in the x-y-z planes while the rat was moving around in the box or involved in stationary movement such as grooming), and distance traveled. Activity testing was conducted in an isolated, temperature controlled area at similar times daily in order to provide consistent results.
as §1

[8] = test system: CFA-induced mono-arthritis pain; assay: Pain-related posture (spontaneous pain rating score 0-5); assay type: in vivo, Sprague-Dawley rats; conditions: after CFA, before CBD gel
Excerpt: The abnormal posture of the affected hind limb of each animal was assigned a single score using a subjective pain-related behavioral scale (spontaneous pain rating score 0-5), i.e. 0—normal; 1—curling of the toes, 2—eversion of the paw; 3—partial weight bearing; 4—non-weight bearing and guarding; and 5—avoidance of any contact with the hindlimb (Sluka et al. (1994) Neuroreport 5:109-112).
as §1, with “The PWL test was conducted 4 h after gel application.” left out, “On the final day of gel application after the body and knee joint parameters were obtained and PWL test was conducted, rats were cuthanized by pentobarbital overdose.” left out, “perfusion. […]” for “perfusion.”

CB2 receptor = CB2 receptor (Homo sapiens, UniProt P34972); conditions: cited from earlier work
[9] = in vivo; cited from earlier work
[10] = 0.6 mg/d group, after CFA, before CBD gel
[11] = 3.1 mg/d group, after CFA, before CBD gel
[12] = 3.1 mg/d transdermal CBD gel, Post-CBD, day 4
[13] = 6.2 mg/d group, after CFA, before CBD gel
[14] = 62.3 mg/d group, after CFA, before CBD gel
[15] = CFA + CBD group, baseline before CFA and before CBD

CB2 receptor, sequence (P34972 whole entry): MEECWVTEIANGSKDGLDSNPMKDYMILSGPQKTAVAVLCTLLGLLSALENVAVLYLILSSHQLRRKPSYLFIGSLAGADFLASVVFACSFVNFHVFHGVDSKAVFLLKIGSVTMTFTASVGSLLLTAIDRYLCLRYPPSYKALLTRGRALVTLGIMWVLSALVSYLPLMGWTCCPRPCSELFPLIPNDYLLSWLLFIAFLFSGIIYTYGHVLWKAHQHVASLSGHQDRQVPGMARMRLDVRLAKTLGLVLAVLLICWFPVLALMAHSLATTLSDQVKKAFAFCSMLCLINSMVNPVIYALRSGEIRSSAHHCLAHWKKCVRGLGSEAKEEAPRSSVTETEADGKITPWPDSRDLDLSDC

C=C(C)C1CCC(C)=CC1c1c(O)cc(CCCCC)cc1O (stereo not drawn) [CBD, 2-[3-methyl-6-(1-methylethenyl)-2-cyclohexen-1-yl]-5-pentyl-1,3-benzenedi-ol]
Plasma CBD concentration ([1]; topical gel 0.6 mg/d, four consecutive days): 3.8 ± 1.4 ng/mL | Plasma CBD concentration ([1]; topical gel 3.1 mg/d): 17.5 ± 4.4 ng/mL | Plasma CBD concentration ([1]; topical gel 6.2 mg/d): 33.3 ± 9.7 ng/mL | Plasma CBD concentration ([1]; topical gel 62.3 mg/d (10% w/w gel), not in linear profile): 1,629.9±379.0 ng/mL | Knee joint temperature [mean ± SD] [2, 10]: 31.7 ± 1.7^b ° C. | Knee joint temperature [mean ± SD] ([2]; 0.6 mg/d transdermal CBD gel, Post-CBD, day 4): 31.2 ± 0.7^b ° C. | Knee joint temperature [mean ± SD] [2, 11]: 30.8 ± 0.9^b ° C. | Knee joint temperature [mean ± SD] [2, 12]: 30.6 ± 0.6^b ° C. | Knee joint temperature [mean ± SD] [2, 13]: 32.1 ± 1.8^b ° C. | Knee joint temperature [mean ± SD] ([2]; 6.2 mg/d transdermal CBD gel, Post-CBD, day 4): 31.7 ± 2.1^b ° C. | Knee joint temperature [mean ± SD] [2, 14]: 34.1 ± 0.8^a ° C. | Knee joint temperature [mean ± SD] ([2]; 62.3 mg/d transdermal CBD gel, Post-CBD, day 4): 30.2 ± 0.9^a ° C. | Difference in knee joint temperature among the treatment groups ([2]; CBD gel doses vs vehicle gel, p>0.05): No knee joint temperature differences; also recorded: no significant differences | Knee joint temperature [mean ± SD] [2, 15]: 33.4 ± 0.2^a ° C. | Decrease in thermal and mechanical withdrawal latency [3]: 50% | Paw withdrawal latency (PWL), own baseline score ([4]; 6.2 mg/d group): 10.9 ± 0.3 s | Paw withdrawal latency (PWL), own baseline score ([4]; 62.3 mg/d group): 9.3 ± 0.3 s | Paw withdrawal latency (PWL) ([4]; CFA rats, 0.6 mg/d CBD gel, day 2 of application, 4 h after application): 7.8 ± 0.5 s | Improvement of PWL scores ([4]; CFA rats, 0.6 mg/d and 3.1 mg/d CBD, day 4): did not have improved PWL scores | Paw withdrawal latency (PWL) ([4]; CFA rats, 3.1 mg/d CBD gel, day 2 of application): 7.6 ± 0.8 s | Paw withdrawal latency (PWL) ([4]; CFA rats, 6.2 mg/d CBD gel, day 2 of application, p<0.05 vs vehicle gel): 9.2 ± 0.7 s | Paw withdrawal latency (PWL) ([4]; CFA rats, 6.2 mg/d CBD gel, day 4): 9.2 ± 0.3 s | Change in PWL vs CFA rats receiving vehicle gel ([4]; CFA rats, 6.2 mg/d, 4 h (d 1) post CBD dosing, p<0.05): improvement | Paw withdrawal latency (PWL) ([4]; CFA rats, 62.3 mg/d CBD gel, day 2 of application, p<0.05 vs vehicle gel): 9.1 ± 0.2 s | Paw withdrawal latency (PWL) ([4]; CFA rats, 62.3 mg/d CBD gel, day 4): 9.3 ± 0.2 s | Paw withdrawal latency (PWL) ([4]; normal controls, 6.2 mg/d CBD gel, day 4): 10.6 ± 0.3 s | Paw withdrawal latency (PWL) ([4]; normal rats, 0.6 mg/d CBD gel, day 2): 9.9 ± 0.2 s | Paw withdrawal latency (PWL) ([4]; normal rats, 3.1 mg/d CBD gel, day 2): 9.9 ± 0.3 s | Paw withdrawal latency (PWL) ([4]; normal rats, 6.2 mg/d CBD gel, day 2): 10.1 ± 0.9 s | Effect on PWL in normal rats ([4]; normal rats, any CBD dose (0.6, 3.1, 6.2 mg/d)): not affected; also recorded: no effect | Effect on hyperalgesia (PWL) ([5]; mice, 5 and 7.5 mg/kg oral, by 6 h): eliminated hyperalgesia | Effect on hyperalgesia (PWL) ([5]; mice, 10, 20 and 40 mg/kg oral, 3 h post carrageenan): elimination of hyperalgesia | Knee joint circumference [mean ± SD] [6, 10]: 7.5 ± 0.3^b cm | Knee joint circumference [mean ± SD] ([6]; 0.6 mg/d transdermal CBD gel, Post-CBD, four consecutive days (day 4)): 7.0 ± 0.3^b cm | Knee joint circumference [mean ± SD] [6, 11]: 7.4 ± 0.4^b cm | Knee joint circumference [mean ± SD] [6, 12]: 7.1 ± 0.3^b cm | Knee joint circumference [mean ± SD] [6, 13]: 7.2 ± 0.3^b cm | Knee joint circumference [mean ± SD] ([6]; 6.2 mg/d transdermal CBD gel, Post-CBD, day 4, p<0.05 vs vehicle gel): 6.6±0.2 cm and 6.6 ± 0.2^b* cm | Knee joint circumference [mean ± SD] [6, 14]: 7.2 ± 0.0^a cm | Knee joint circumference [mean ± SD] ([6]; 62.3 mg/d transdermal CBD gel, Post-CBD, day 4, p<0.05 vs vehicle gel): 6.6±0.1 cm and 6.6 ± 0.1^a* cm | Knee joint circumference [mean ± SD] [6, 15]: 5.7±0.2 cm and 5.7 ± 0.2^c cm | Optimal treatment dose for knee inflammation ([6]; transdermal gel, no further improvement with 62.3 mg/d): 6.2 mg/day | Therapeutic action on established CIA ([7]; administered systemically (ip and oral)): beneficial therapeutic action | Optimal dose for arthritis suppression ([7]; i.p. (2.5, 5, 10, 20 mg/kg tested)): 5 mg/kg | Optimal dose for arthritis suppression ([7]; oral (10, 25, 50 mg/kg tested)): 25 mg/kg | Distance traveled (normal (non-CFA) rats; 0.6 mg/d CBD gel, post-dose, p<0.05 vs pre-dose): 1757.1±299.2 cm | Distance traveled (normal (non-CFA) rats; 0.6 mg/d group, pre-dose): 2245.5±367.4 cm | Rearing events (normal (non-CFA) rats; 3.1 mg/d group, pre-dose): 284.0±31.1 | Rearing time (normal (non-CFA) rats; 3.1 mg/d group, pre-dose): 189.1±20.7 | Exploratory activity, six parameters (rearing events, rearing time, total beams broken, distance traveled, active time, resting time) (normal (non-CFA) rats; among dose groups and pre- vs post-dose, p>0.05, exception distance traveled at 0.6 mg/d): No significant (p>0.05) differences | Spontaneous pain rating scores [mean ± SD] ([8]; 0.6 mg/d group): 4.0 ± 0.0^b | Spontaneous pain rating scores [mean ± SD] ([8]; 3.1 mg/d group): 4.0 ± 0.0^b | Binding affinity for CB2 receptor (CB2 receptor): little binding affinity

CCCCCc1cc(O)c2c(c1)OC(C)(C)[C@@H]1CCC(C)=C[C@@H]21 [THC, Δ^9-tetrahydrocannabinol]
Side effects caused [9]: hypothermia and hypomobility
